Patent publication US5082931A, “Type II bacterial Fc receptors” (University of Florida Research Foundation, Inc., priority 1989, dated 1992)
Residues, ends and D or L forms follow the SMILES beside them.

Legend:
Parameters in all cases: species or system group A streptococcus
[1] = test system: type IIb Fc receptor (Mr 38,000; IgG3-specific receptor) of group A streptococcal strain 64/14/HRP; test: Inhibition of 125I-labeled human IgG3 binding to strain 64/14/HRP; settings: whole bacteria 64/14/HRP, 1.5 hr at 37° C., varying concentrations; FIG. 8 panel C
Description: (§1) In the next series of experiments, the ability of the inhibitory dipeptides, glycyl-tyrosine and glycyl-histidine, were tested for their ability to inhibit the binding of each labeled human IgG subclass to the type II receptor-positive 64/14/HRP bacteria. Glycyl-glycine was also included as a negative control.
(§2) A standard number of group A streptococci was incubated for 1.5 hr. at 37° C. with 20,000 cpm of the approprimately ^125 I-labeled human IgG subclasses in the presence of varying concentrations of dipeptide. The bacteria were pelleted by centrifugations of 1000×g for 10 min. and washed twice with 3 ml of veronal buffered saline containing 0.01 M EDTA and 0.1% gelatin. The radioactivity associated with the bacteria was determined in an LKB autogamma counter. The cpm bound to the baterial pellet were expressed as percent of maximum cpm bound. See FIG. 8 wherein Panel A represents the results obtained from the binding of ^125 I IgG1. Panel B represents the results obtained from the binding of ^125 I IgG2. Panel C represents the results obtained from the binding of ^125 I IgG3. Panel D represents the results obtained from the binding of ^125 I IgG4.

[2] = test system: type IIa Fc receptor (Mr 56,000; receptor for human IgG1, IgG2 and IgG4) of group A streptococcal strain 64/14/HRP; test: Inhibition of 125I-labeled IgG1, IgG2, IgG4, pig or rabbit IgG binding to strain 64/14/HRP; settings: whole bacteria 64/14/HRP, 1.5 hr at 37° C.; for inhibition of binding of labeled human IgG1, IgG2 and IgG4 to the bacteria: varying concentrations, FIG. 8 panels A, B, D; for inhibition of binding of labeled pig or rabbit IgG to the bacteria: FIG. 9
Description: as §1, §2
In the next series of experiments the effect of histidine, glycyl-histidineor glycyl-tyrosine on the binding of labeled pig or rabbit IgG was tested.
A standard number of group A streptococci was incubated for 1.5 hr. at 37° C. with 20,000 cpm of the appropriately ^125 I-labeled species IgG in the presence of the indicated amounts of histidine. The bacteria were washed as described above. The cpm bound to the bacterial pellet were expressed as percent of maximum cpm bound. In FIG. 9, ( .circle.--.circle. ) represents ^125 I human IgG; ( -- ) represents ^125 I pig IgG; and ( -- ) represents rabbit IgG.

[3] = test system: type II Fc receptor on group A streptococcal strain 64/14/HRP; test: Inhibition of 125I-labeled IgG binding to type II Fc receptor-positive bacteria by dipeptides or histidine; settings: whole bacteria 64/14/HRP, 1.5 hr at 37° C., 20,000 cpm 125I human IgG; concentration range, see FIG. 7, FIG. 9
Description: Staphylococcus aureus Cowan I served as the representative type I Fc receptor-positive strain. The group A streptococcal strain 64/14/HRP served as a representative type II Fc receptor-positive strain. The group C streptococcal strain 26RP66 served as a representative type III Fc receptor-positive strain. All strains were grown as stationary cultures in Todd Hewitt broth (Difco) for 18-24 hr at 37° C., harvested by centrifugation and washed in phosphate buffered saline (PBS), pH 7.2.
Glycyl-L-tyrosine, glycyl-L-histidine, glycyl-glycine, glycyl-DL-leucine, glycyl-DL-phenylalanine, and L-histidine were utilized in the tests.
The detection of Fc-reactive proteins on the surface of bacteria was determined by the ability of the bacteria to bind ^125 I-labeled IgG as follows: Briefly, a stock preparation of bacteria was standardized to bind approximately 75% of the 20,000 cpm of labeled IgG added at pH 7.0. Following standardization for the Fc receptor activity, aliquots of bacteria were incubated with ^125 I-labeled IgG and the indicated amount of the dipeptides for 1.5 hr. at 37° C. […] The radioactivity associated with the bacteria was determined in an LKB autogamma counter. The cpm bound to the bacterial pellet were expressed as percent of maximum cpm bound. […]
A standard number of Staphylococcus aureus Cowan strain ( -- ), group C streptococcal strain 26RP66 (.largecircle.--.largecircle.), or the group A streptococcal strain 64/14/HRP ( .circle.--.circle. ) was incubated for 1.5 hr. at 37° C. with 20,000 cpm of ^125 I labeled human IgG in the presence of the indicated amounts of dipeptide. […] The radioactivity associated with the bacteria was determined in an LKB autogamma counter. The cpm bound to the bacterial pellet were expressed as percent of maximum cpm bound.
A standard number of group A streptococci was incubated for 1.5 hr. at 37° C. with 20,000 cpm of the appropriately ^125 I-labeled species IgG in the presence of the indicated amounts of histidine. […] The cpm bound to the bacterial pellet were expressed as percent of maximum cpm bound. […]

Row | SMILES | inhibition of binding of labeled human IgG3 to the bacteria [1] | inhibition of binding of labeled human IgG1, IgG2 and IgG4 to the bacteria [2] | inhibition of binding of labeled pig or rabbit IgG to the bacteria [2] | inhibition of binding of 125I-labeled human IgG to type II Fc receptor positive bacteria [3]
1 | NCC(=O)N[C@@H](Cc1c[nH]cn1)C(=O)O [glycyl-histidine, glycyl-L-histidine] (H-Gly-His-OH) | minimal inhibition | efficiently inhibit | inhibited | inhibition
2 | NCC(=O)N[C@@H](Cc1ccc(O)cc1)C(=O)O [glycyl-tyrosine, Glycyl-L-tyrosine] (H-Gly-Tyr-OH) | minimal inhibition | efficiently inhibit | inhibited | inhibition
3 | N[C@@H](Cc1c[nH]cn1)C(=O)O [histidine, L-histidine] | minimal inhibition | inhibited | inhibited | inhibited
